Source: article PMC3914206

Assays:
[1] = biological target: T1, panel of 442 kinases (Homo sapiens, UniProt P00519); assay type: binding; set-up: KINOMEscan: ABL1(F317L)-phosphorylated / KINOMEscan: ABL1(H396P)-nonphosphorylated / KINOMEscan: ABL1(H396P)-phosphorylated / KINOMEscan: ABL1(M351T)-phosphorylated / KINOMEscan: ABL1(T315I)-phosphorylated / KINOMEscan: ABL1-nonphosphorylated / KINOMEscan: ABL1-phosphorylated / KINOMEscan: ACVR2A / KINOMEscan: ACVR2B / KINOMEscan: ADCK3 / KINOMEscan: ADCK4 / KINOMEscan: AKT1 / KINOMEscan: AKT3 / KINOMEscan: ALK / KINOMEscan: ARK5 / KINOMEscan: AURKA / KINOMEscan: AURKC / KINOMEscan: BIKE / KINOMEscan: BMPR1A / KINOMEscan: BMPR1B / KINOMEscan: BMX / KINOMEscan: BRK / KINOMEscan: BRSK1 / KINOMEscan: BRSK2 / KINOMEscan: CAMK1 / KINOMEscan: CAMK1D / KINOMEscan: CAMK1G / KINOMEscan: CAMK2A / KINOMEscan: CAMK2B / KINOMEscan: AAK1 / KINOMEscan: CAMK2D / KINOMEscan: CAMK2G / KINOMEscan: ABL1(F317I)-nonphosphorylated / KINOMEscan: ABL1(F317I)-phosphorylated / KINOMEscan: ABL1(F317L)-nonphosphorylated: unit: % Ctrl; details: Compound Concentration 10 µM
T1 construct: purchased KINOMEscan
Source text: (§1) We assessed the selectivity of members of this scaffold using the KINOMEscan methodology across a near comprehensive panel of 442 kinases [[18,27]].

[2] = biological target: T2, panel of 442 kinases (Homo sapiens, UniProt Q8TDC3); assay type: binding; set-up: KINOMEscan: ABL1(F317L)-phosphorylated / KINOMEscan: ABL1(H396P)-nonphosphorylated / KINOMEscan: ABL1(H396P)-phosphorylated / KINOMEscan: ABL1(M351T)-phosphorylated / KINOMEscan: ABL1(T315I)-phosphorylated / KINOMEscan: ABL1-nonphosphorylated / KINOMEscan: ABL1-phosphorylated / KINOMEscan: ACVR2A / KINOMEscan: ACVR2B / KINOMEscan: ADCK3 / KINOMEscan: ADCK4 / KINOMEscan: AKT1 / KINOMEscan: AKT3 / KINOMEscan: ALK / KINOMEscan: ARK5 / KINOMEscan: AURKA / KINOMEscan: AURKC / KINOMEscan: BIKE / KINOMEscan: BMPR1A / KINOMEscan: BMPR1B / KINOMEscan: BMX / KINOMEscan: BRK / KINOMEscan: BRSK1 / KINOMEscan: BRSK2 / KINOMEscan: CAMK1 / KINOMEscan: CAMK1D / KINOMEscan: CAMK1G / KINOMEscan: CAMK2A / KINOMEscan: CAMK2B / KINOMEscan: AAK1 / KINOMEscan: CAMK2D / KINOMEscan: CAMK2G / KINOMEscan: ABL1(F317I)-nonphosphorylated / KINOMEscan: ABL1(F317I)-phosphorylated / KINOMEscan: ABL1(F317L)-nonphosphorylated: unit: % Ctrl; details: Compound Concentration 10 µM
T2 construct: purchased KINOMEscan
T2 sequence (Q8TDC3 1-778): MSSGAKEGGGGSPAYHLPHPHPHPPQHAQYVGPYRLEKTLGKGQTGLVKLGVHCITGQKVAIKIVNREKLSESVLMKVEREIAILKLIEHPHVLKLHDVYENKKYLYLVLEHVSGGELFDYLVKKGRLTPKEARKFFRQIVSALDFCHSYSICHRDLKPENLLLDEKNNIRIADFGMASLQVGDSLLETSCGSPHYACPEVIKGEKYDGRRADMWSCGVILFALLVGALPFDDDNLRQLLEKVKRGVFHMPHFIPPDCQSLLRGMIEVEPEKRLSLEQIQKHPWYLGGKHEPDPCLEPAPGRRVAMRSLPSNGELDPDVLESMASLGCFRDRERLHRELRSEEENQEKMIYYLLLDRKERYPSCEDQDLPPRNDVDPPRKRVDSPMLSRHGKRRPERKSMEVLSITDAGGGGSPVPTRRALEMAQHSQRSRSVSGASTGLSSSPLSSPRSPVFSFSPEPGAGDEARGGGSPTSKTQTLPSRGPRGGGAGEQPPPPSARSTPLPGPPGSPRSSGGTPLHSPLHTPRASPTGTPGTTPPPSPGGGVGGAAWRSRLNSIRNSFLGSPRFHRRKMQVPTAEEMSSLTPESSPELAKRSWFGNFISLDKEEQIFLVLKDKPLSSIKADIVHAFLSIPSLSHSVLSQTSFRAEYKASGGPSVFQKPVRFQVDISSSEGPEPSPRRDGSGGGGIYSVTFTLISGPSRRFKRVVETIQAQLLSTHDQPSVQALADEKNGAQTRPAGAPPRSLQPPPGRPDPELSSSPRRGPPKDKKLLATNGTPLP
Source text: as §1

T1 sequence (P00519 whole entry): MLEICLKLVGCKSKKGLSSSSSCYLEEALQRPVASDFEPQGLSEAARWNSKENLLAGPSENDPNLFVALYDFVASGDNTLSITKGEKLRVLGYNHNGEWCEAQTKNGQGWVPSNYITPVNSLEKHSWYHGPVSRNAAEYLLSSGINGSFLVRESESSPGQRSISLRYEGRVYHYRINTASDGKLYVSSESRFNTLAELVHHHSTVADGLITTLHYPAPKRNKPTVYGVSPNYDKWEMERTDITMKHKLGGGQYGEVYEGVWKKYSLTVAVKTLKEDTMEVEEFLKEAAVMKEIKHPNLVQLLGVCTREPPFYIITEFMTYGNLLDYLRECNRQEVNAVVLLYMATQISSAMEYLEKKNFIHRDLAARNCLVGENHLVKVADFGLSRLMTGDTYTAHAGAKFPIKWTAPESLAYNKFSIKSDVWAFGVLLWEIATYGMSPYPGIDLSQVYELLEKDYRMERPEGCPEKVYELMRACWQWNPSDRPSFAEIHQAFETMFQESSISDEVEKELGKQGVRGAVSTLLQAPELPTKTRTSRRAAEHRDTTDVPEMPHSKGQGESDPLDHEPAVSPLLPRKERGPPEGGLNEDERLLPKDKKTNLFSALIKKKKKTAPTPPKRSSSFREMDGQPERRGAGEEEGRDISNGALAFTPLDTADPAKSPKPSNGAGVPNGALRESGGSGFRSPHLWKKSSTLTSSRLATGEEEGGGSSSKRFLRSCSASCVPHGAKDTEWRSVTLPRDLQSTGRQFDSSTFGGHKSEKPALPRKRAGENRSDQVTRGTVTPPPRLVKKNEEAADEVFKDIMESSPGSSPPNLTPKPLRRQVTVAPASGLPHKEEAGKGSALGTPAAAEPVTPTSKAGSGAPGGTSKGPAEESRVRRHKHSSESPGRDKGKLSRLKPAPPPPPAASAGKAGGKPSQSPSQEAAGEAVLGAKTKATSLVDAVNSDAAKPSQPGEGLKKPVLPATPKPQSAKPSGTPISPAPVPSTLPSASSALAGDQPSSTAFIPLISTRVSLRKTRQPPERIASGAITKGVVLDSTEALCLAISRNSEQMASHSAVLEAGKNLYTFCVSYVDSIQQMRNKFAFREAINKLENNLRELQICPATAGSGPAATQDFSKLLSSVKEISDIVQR

SMILES	KINOMEscan: ABL1-nonphosphorylated [1]	KINOMEscan: ABL1-phosphorylated [1]	KINOMEscan: BRSK1 [2]
CCOc1cc(C(=O)N2CCC(N3CCN(C)CC3)CC2)ccc1Nc1ncc2c(n1)N(C1CCCC1)c1ccccc1C(=O)N2C [Compound 26]	96	100	100
COc1cc(C(=O)N2CCC(N3CCN(C)CC3)CC2)ccc1Nc1ncc2c(n1)N(C1CCCC1)c1ccccc1C(=O)N2C [Compound 25, 11-cyclopentyl-2-((2-methoxy-4-(4-(4-methylpiperazin-1-yl)piperidine-1-carbonyl)phenyl)amino)-5-methyl-5H-benzo[e]pyrimido[5,4-b][1,4]diazepin-6(11H)-one]	90	100	84
COc1cc(C(=O)N2CCC(N3CCN(C)CC3)CC2)ccc1Nc1ncc2c(n1)N1CCc3cccc(c31)C(=O)N2C [Compound 24]	60	81	82
COc1cc(C(=O)N2CCC(N3CCN(C)CC3)CC2)ccc1Nc1ncc2c(n1)N(C)c1ccccc1C(=O)N2C [15 (LRRK2-IN-1)]	100	82	81
